According to patent US20250368633A1, “AZEPINE FUSED RING COMPOUND AS RIPK1 INHIBITOR AND USE THEREOF” (ARTIVILA BIOPHARMA, priority 2022, published 2025):

How the values were obtained:
RIPK1 kinase = target: T1, RIPK1 kinase (Homo sapiens, UniProt Q13546); test: In vitro RIPK1 kinase activity assay (ADP-Glo), inhibition by compounds at 1 μM; type: biochemical; settings: compound 1 μM; ATP 10 μM; MBP substrate 100 μg/mL; read-out: RIPK1 kinase activity inhibition rate range
T1 construct: purchased Promega VA7593
T1 sequence (Q13546 1-671): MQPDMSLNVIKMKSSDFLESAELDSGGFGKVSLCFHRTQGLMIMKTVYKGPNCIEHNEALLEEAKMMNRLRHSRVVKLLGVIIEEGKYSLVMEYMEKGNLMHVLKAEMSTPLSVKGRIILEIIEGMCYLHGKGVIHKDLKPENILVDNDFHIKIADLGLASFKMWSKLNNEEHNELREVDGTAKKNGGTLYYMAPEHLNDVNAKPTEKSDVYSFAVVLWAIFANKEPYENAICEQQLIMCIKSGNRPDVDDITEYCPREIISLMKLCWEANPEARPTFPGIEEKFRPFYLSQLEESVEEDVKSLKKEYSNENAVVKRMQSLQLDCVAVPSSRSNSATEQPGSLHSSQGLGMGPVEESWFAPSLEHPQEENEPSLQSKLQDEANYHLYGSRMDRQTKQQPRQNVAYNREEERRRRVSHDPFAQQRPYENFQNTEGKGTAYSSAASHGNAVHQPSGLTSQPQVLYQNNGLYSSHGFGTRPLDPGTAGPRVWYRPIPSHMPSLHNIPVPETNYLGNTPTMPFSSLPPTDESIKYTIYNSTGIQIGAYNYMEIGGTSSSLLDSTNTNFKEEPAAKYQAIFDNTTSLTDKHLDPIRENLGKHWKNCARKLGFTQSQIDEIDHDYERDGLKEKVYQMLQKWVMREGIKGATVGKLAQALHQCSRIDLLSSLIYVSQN
Procedure, shortened: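 Read by ADP-Glo chemiluminescence as percent inhibition: RIPK1 kinase, 15-min room-temperature compound preincubation, then 1-h reaction with MBP (100 μg/mL final) and ATP (10 μM final). Enzyme level was set by titration.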

U937 cells = test: Inhibition rate of compound (1 μM) on necroptosis of U937 cells (TSZ-induced, CellTiter-Glo); type: cell-based; settings: TSZ (hTNF-α, SM-164, Z-VAD-FMK) 20 hours
Procedure, shortened: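 Percent inhibition comes from ATP luminescence (CellTiter-Glo), referenced to wells without TSZ and wells with TSZ alone. The compound was added to U937 cells 15 min ahead of a TNF-α/SM-164/Z-VAD-FMK mix, followed by 20 h culture at 37° C, 5% CO2.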

Row | Compound | inhibition at 1 µM (RIPK1 kinase) | Inhibition rate range of compounds (1 μM) on U937 cell necroptosis (U937 cells)
1 | CC(Cc1ccccc1)NC(=O)C(=O)N[C@H]1COc2ccc(C#CCCO)cc2N(C)C1=O (mixture of isomers) [Example 37, N^1-((S)-7-(4-hydroxybut-1-yn-1-yl)-5-methyl-4-oxo-2,3,4,5-tetrahydrobenzo[b][1,4]oxazepin-3-yl)-N^2-(1-phenylpropan-2-yl)oxalamide] | 50 to 74% | A (A: ≥90%)
2 | CC(NC(=O)C(=O)N[C@H]1COc2ccc(C#CCCO)cc2N(C)C1=O)c1ccccc1 (mixture of isomers) [Example 41, N^1-((S)-7-(4-hydroxybut-1-yn-1-yl)-5-methyl-4-oxo-2,3,4,5-tetrahydrobenzo[b][1,4]oxazepin-3-yl)-N^2-(1-phenylethyl)oxalamide] | ≥ 75% | A (A: ≥90%)
3 | CN1CCC(CC#Cc2ccc3c(c2)N(C)C(=O)[C@@H](NC(=O)C(=O)NCCc2ccccc2)CO3)C1=O (mixture of isomers) [Example 82, N^1-((3S)-5-methyl-7-(3-(1-methyl-2-oxopyrrolidin-3-yl)prop-1-yn-1-yl)-4-oxo-2,3,4,5-tetrahydrobenzo[b][1,4]oxazepin-3-yl)-N^2-phenethyloxalamide] | ≥ 75% | A (A: ≥90%)
4 | CN1C(=O)[C@@H](NC(=O)C(=O)NCCc2cccc(F)c2)COc2ccc(C#CCN3CCC(O)C3)cc21 (mixture of isomers) [Example 113, N^1-(3-fluorophenethyl)-N^2-((3S)-7-(3-(3-hydroxypyrrolidin-1-yl)prop-1-yn-1-yl)-5-methyl-4-oxo-2,3,4,5-tetrahydrobenzo[b][1,4]oxazepin-3-yl)oxalamide] | ≥ 75% | A (A: ≥90%)
5 | C[C@@H](NC(=O)C(=O)N[C@H]1COc2ccc(C#CCN3CCC(O)C3)cc2N(C)C1=O)c1ccccc1 (mixture of isomers) [Example 126, N^1-((3S)-7-(3-(3-hydroxypyrrolidin-1-yl)prop-1-yn-1-yl)-5-methyl-4-oxo-2,3,4,5-tetrahydrobenzo[b][1,4]oxazepin-3-yl)-N^2-((R)-1-phenylethyl)oxalamide] | ≥ 75% | A (A: ≥90%)
6 | CC(CNC(=O)C(=O)N[C@H]1COc2ccc(C#CCCO)cc2N(C)C1=O)c1ccccc1 (mixture of isomers) [Example 154, N^1-((S)-7-(4-hydroxybut-1-yn-1-yl)-5-methyl-4-oxo-2,3,4,5-tetrahydrobenzo[b][1,4]oxazepin-3-yl)-N^2-(2-phenylpropyl)oxalamide] | ≥ 75% | A (A: ≥90%)
7 | CN1C(=O)[C@@H](NC(=O)C(=O)NCCc2ccccc2)COc2ccc(C#Cc3cccnc3)cc21 [Example 13, (S)—N^1-(5-methyl-4-oxo-7-(pyridin-3-ylethynyl)-2,3,4,5-tetrahydrobenzo[b][1,4]oxazepin-3-yl)-N^2-phenethyloxalamide] | ≥ 75% | A (A: ≥90%)
8 | CN1C(=O)[C@@H](NC(=O)C(=O)NCCc2ccccc2)COc2ccc(C#Cc3ccsc3)cc21 [Example 17, (S)—N^1-(5-methyl-4-oxo-7-(thiophen-3-ylethynyl)-2,3,4,5-tetrahydrobenzo[b][1,4]oxazepin-3-yl)-N^2-phenethyloxalamide] | ≥ 75% | A (A: ≥90%)
9 | CN1C(=O)[C@@H](NC(=O)C(=O)NCCc2ccccc2)COc2ccc(C#C[Si](C)(C)C)cc21 [Example 18, (S)—N^1-(5-methyl-4-oxo-7-((trimethylsilyl)ethynyl)-2,3,4,5-tetrahydrobenzo[b][1,4]oxazepin-3-yl)-N^2-phenethyloxalamide] | ≥ 75% | A (A: ≥90%)
10 | CC#Cc1ccc2c(c1)N(C)C(=O)[C@@H](NC(=O)C(=O)NCCc1ccccc1)CO2 [Example 19, (S)—N^1-(5-methyl-4-oxo-7-(prop-1-yn-1-yl)-2,3,4,5-tetrahydrobenzo[b][1,4]oxazepin-3-yl)-N^2-phenethyloxalamide] | ≥ 75% | A (A: ≥90%)
11 | CN1C(=O)[C@@H](NC(=O)C(=O)NCCc2ccccc2)COc2ccc(C#CC3CCOCC3)cc21 [Example 21, (S)—N^1-(5-methyl-4-oxo-7-((tetrahydro-2H-pyran-4-yl)ethynyl)-2,3,4,5-tetrahydrobenzo[b][1,4]oxazepin-3-yl)-N^2-phenethyloxalamide] | ≥ 75% | A (A: ≥90%)
12 | CN1C(=O)[C@@H](NC(=O)C(=O)NCCc2ccccc2)COc2ccc(C#Cc3cnn(C)c3)cc21 [Example 22, (S)—N^1-(5-methyl-7-((1-methyl-1H-pyrazol-4-yl)ethynyl)-4-oxo-2,3,4,5-tetrahydrobenzo[b][1,4]oxazepin-3-yl)-N^2-phenethyloxalamide] | ≥ 75% | B (B: 50-89%)
13 | CN1C(=O)[C@@H](NC(=O)C(=O)NCCc2ccccc2)COc2ccc(C#CC3CCCNC3)cc21 (stereo partly drawn) [Example 24, N^1-((3S)-5-methyl-4-oxo-7-(piperidin-3-ylethynyl)-2,3,4,5-tetrahydrobenzo[b][1,4]oxazepin-3-yl)-N^2-phenethyloxalamide] | 50 to 74% | A (A: ≥90%)
14 | CN1C(=O)[C@@H](NC(=O)C(=O)NCCc2ccccc2)COc2ccc(C#Cc3cnc4cccnn34)cc21 [Example 25, (S)—N^1-(7-(imidazo[1,2-b]pyridazin-3-ylethynyl)-5-methyl-4-oxo-2,3,4,5-tetrahydrobenzo[b][1,4]oxazepin-3-yl)-N^2-phenethyloxalamide] | ≥ 75% | A (A: ≥90%)
15 | CN1C(=O)[C@@H](NC(=O)C(=O)NCCc2ccccc2)COc2ccc(C#CC(C)(C)O)cc21 [Example 29, (S)—N^1-(7-(3-hydroxy-3-methylbut-1-yn-1-yl)-5-methyl-4-oxo-2,3,4,5-tetrahydrobenzo[b][1,4]oxazepin-3-yl)-N^2-phenethyloxalamide] | ≥ 75% | A (A: ≥90%)
16 | CN1C(=O)[C@@H](NC(=O)C(=O)NCCc2ccccc2)COc2ccc(C#CCCO)cc21 [Example 31, (S)—N^1-(7-(4-hydroxybut-1-yn-1-yl)-5-methyl-4-oxo-2,3,4,5-tetrahydrobenzo[b][1,4]oxazepin-3-yl)-N^2-phenethyloxalamide] | ≥ 75% | A (A: ≥90%)
17 | CN1C(=O)[C@@H](NC(=O)C(=O)NCc2ccccc2)COc2ccc(C#CCCO)cc21 [Example 32, (S)—N^1-benzyl-N^2-(7-(4-hydroxybut-1-yn-1-yl)-5-methyl-4-oxo-2,3,4,5-tetrahydrobenzo[b][1,4]oxazepin-3-yl)oxalamide] | ≥ 75% | A (A: ≥90%)
18 | CN1C(=O)[C@@H](NC(=O)C(=O)NCCc2ccccc2F)COc2ccc(C#CCCO)cc21 [Example 33, (S)—N^1-(2-fluorophenethyl)-N^2-(7-(4-hydroxybut-1-yn-1-yl)-5-methyl-4-oxo-2,3,4,5-tetrahydrobenzo[b][1,4]oxazepin-3-yl)oxalamide] | ≥ 75% | A (A: ≥90%)
19 | CN1C(=O)[C@@H](NC(=O)C(=O)NCCc2cccc(F)c2)COc2ccc(C#CCCO)cc21 [Example 34, (S)—N^1-(3-fluorophenethyl)-N^2-(7-(4-hydroxybut-1-yn-1-yl)-5-methyl-4-oxo-2,3,4,5-tetrahydrobenzo[b][1,4]oxazepin-3-yl)oxalamide] | 50 to 74% | A (A: ≥90%)
20 | CN1C(=O)[C@@H](NC(=O)C(=O)NCCc2ccc(F)cc2)COc2ccc(C#CCCO)cc21 [Example 35, (S)—N^1-(4-fluorophenethyl)-N^2-(7-(4-hydroxybut-1-yn-1-yl)-5-methyl-4-oxo-2,3,4,5-tetrahydrobenzo[b][1,4]oxazepin-3-yl)oxalamide] | 50 to 74% | A (A: ≥90%)
21 | CN1C(=O)[C@@H](NC(=O)C(=O)NCCc2cc(F)cc(F)c2)COc2ccc(C#CCCO)cc21 [Example 36, (S)—N^1-(3,5-difluorophenethyl)-N^2-(7-(4-hydroxybut-1-yn-1-yl)-5-methyl-4-oxo-2,3,4,5-tetrahydrobenzo[b][1,4]oxazepin-3-yl)oxalamide] | ≥ 75% | A (A: ≥90%)
